Where “and” joins values, the source holds several entries; their conditions need not be identical. Equal entries are not always repeated. Where two headings read alike, the source gives them in different places. Blank lines part the entries; values can stand above or below the molecule they belong to.
Legend:
[1] = tested on: STAT3 phosphorylation (Tyr705) in A549 cells; assay: Phosphorylation inhibitory assay (western blotting); assay type: cell-based, Human; conditions: 24 h
Description: Several concentrations of FBNAF (final conc. 0, 0.2, 0.5 1.0, and 2.0 μM in medium containing 1% DMSO) were added to A549 cells, followed by incubation at 37℃ for 24 h. After harvesting, cells were lysed with Passive Lysis Buffer (Promega, Madison, WI, USA) containing 1% protease inhibitor and 1% phosphatase inhibitor. Cell protein was quantified using a Pierce BCA Protein Assay Kit (Thermo Scientific, Waltham, MA, USA). The samples (15 μg/lane) were loaded and separated on an sodium dodecyl sulfate (SDS) polyacrylamide gel. Western blotting was performed using primary antibodies against STAT3 (1:2000 dilution, #4904, Cell Signaling Technology, Danvers, MA, USA), pSTAT3(Tyr705) (1:2000 dilution, #9145, Cell Signaling Technology), and β-actin (1:5000 dilution, NB600-503, Novus Biologicals, Centennial, CO, USA), as well as anti-rabbit IgG HRP-conjugated antibody (1:3000 dilution, HAF008, R&D Systems, Minneapolis, MN, USA) as a secondary antibody. The western blot bands were detected using Chemi-Lumi One L (Nacalai Tesque) and analyzed using an Amersham imager 600 (Cytiva, Tokyo, Japan). To detect pSTAT3, Chemi-Lumi One Ultra (Nacalai Tesque) was used.

SH2 domain of STAT3 = conditions: cited from earlier work
A549 tumor-bearing mice [2] = tested on: A549 tumor-bearing mice; design: method as in Zhang et al. [2012]; conditions: repeated intravenous administration, ref Zhang et al. [2012]; cited from earlier work
[3] = In vitro stability in mouse plasma; assay type: in vitro ADME, ddY mouse; conditions: 3 h incubation in mouse plasma, 37℃, normal-phase TLC
Description: [^18F]FBNAF (152 kBq, 20 μL) in 5% DMSO/PBS ( −) was incubated with ddY mouse plasma (180 μL) at 37℃ for 10, 60, 120, or 180 min. After protein removal using CH3CN (400 μL), the supernatant was filtered through a Cosmonice Filter W and analyzed by TLC (Rf = 0.4, ethyl acetate:hexane = 1:1), followed by radioactivity counting using a γ-counter (2480 Wizard^2, PerkinElmer Japan, Kanagawa, Japan; n = 3). The intact rate (%) was represented as the intact form relative to the total radioactivity.

A549 tumor-bearing mice [4] = assay: In vivo biodistribution; design: species or system BALB/c nude mice
Description: (§1) BALB/c nude mice (male, 4 weeks old) and ddY mice (male, 6 weeks old) were purchased from Japan SLC (Shizuoka, Japan) and given free access to food and water. All animal experiments were conducted according to Osaka Medical and Pharmaceutical University guidelines, and the study protocol was approved by the Institutional Experimental Animal Committee (Permission Number: 22-76, AP23-004). To prepare tumor-bearing mice, A549 cells (4 × 10^6 cells/mouse) suspended in culture medium (100 μL) were implanted subcutaneously into the right hind leg of each mouse. Animals with a tumor size of approximately 100 mm^3 (length × width^2 × 1/2) after inoculation with A549 cells were used for in vivo and ex vivo experiments.
(§2) [^18F]FBNAF (115-343 kBq, 100 μL) in 5% DMSO/PBS (−) was intravenously injected into mice. The animals were euthanized under isoflurane anesthesia at 10, 30, 60, and 120 min postinjection, and the tissues of interest were excised and weighed. Radioactivity was measured using a γ-counter. The accumulation of radioactivity was expressed as the percent injected dose per gram tissue (%ID/g) for all tissues excluding the stomach, in which accumulation was expressed as the percent injected dose per organ (%ID). For the blocking study, [^18F]FBNAF (115-360 kBq, 100 μL) in 5% DMSO/PBS (−) was intravenously coinjected with BP-1-102 (3.0 mg/kg, Selleck, Shanghai, China) into mice, and after 30 min, the accumulated radioactivity in the tumor, blood, and muscle were measured. Radioactivity was decay-corrected at the time of administration.

STAT3 = target: T1, STAT3 (Homo sapiens, UniProt P40763); assay: Ex vivo autoradiography and immunohistochemistry; assay type: in vivo, mouse; conditions: tumor sections, 30 min postinjection, A549 tumor-bearing mice
T1 construct: sections prepared from the excised tumors of A549 tumor-bearing mice at 30 min postinjection of [^18F]FBNAF; from tissue; host or cells: A549 (human lung cancer) xenograft tumour excised from tumour-bearing mice
T1 sequence (P40763 whole entry): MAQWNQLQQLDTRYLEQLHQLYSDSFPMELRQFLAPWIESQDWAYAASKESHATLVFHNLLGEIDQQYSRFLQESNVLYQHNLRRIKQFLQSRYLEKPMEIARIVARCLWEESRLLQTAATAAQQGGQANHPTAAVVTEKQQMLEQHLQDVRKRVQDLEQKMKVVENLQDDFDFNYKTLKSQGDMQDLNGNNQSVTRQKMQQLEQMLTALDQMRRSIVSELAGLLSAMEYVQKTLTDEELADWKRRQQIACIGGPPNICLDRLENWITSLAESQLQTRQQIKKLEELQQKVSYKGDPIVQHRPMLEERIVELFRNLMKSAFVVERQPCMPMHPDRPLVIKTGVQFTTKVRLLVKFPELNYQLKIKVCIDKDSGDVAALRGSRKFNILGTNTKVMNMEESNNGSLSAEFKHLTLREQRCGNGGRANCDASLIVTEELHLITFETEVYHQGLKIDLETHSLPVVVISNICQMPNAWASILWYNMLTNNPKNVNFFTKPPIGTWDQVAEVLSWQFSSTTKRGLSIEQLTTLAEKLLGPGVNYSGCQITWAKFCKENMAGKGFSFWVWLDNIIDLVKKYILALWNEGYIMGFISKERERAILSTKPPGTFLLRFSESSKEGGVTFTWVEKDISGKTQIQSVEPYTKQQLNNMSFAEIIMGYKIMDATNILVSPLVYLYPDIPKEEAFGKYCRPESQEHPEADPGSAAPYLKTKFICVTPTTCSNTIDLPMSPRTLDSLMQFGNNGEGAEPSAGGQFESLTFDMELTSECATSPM
Description: Tumors were excised 30 min after the intravenous injection of [^18F]FBNAF (3–6 MBq, 100 μL) and immediately frozen in OCT compound. The frozen tumor was cut into 10 µm thick sections using Cryotome and contacted with a phosphor screen in a cassette overnight. The screen was scanned using an Amersham Typhoon scanner (Cytiva), and the resulting images were analyzed using Image-Quant TL (Cytiva).
For immunohistochemistry, adjacent sections were fixed with cold acetone (− 20℃) for 10 min. After blocking using Blocking One Histo (Nacalai Tesque), the sections were incubated with antibodies against STAT3 (1:200 dilution, #4904) or pSTAT3(Tyr705) (1:200 dilution, #9145) overnight at 4℃. After a rinse, anti-rabbit IgG(H + L) CF555 (1:1000 dilution, SAB4600068, Sigma-Aldrich, St. Louis, MO, USA) was added, followed by incubation for 30 min at room temperature. Nuclear staining was performed by incubation with Hoechst 33,342 (Nacalai Tesque) for 10 min.

A549 tumor-bearing mice [5] = assay: In vivo blocking study with coinjected BP-1-102; design: species or system BALB/c nude mice
Description: as §1, §2

RKO = tested on: RKO; design: method as in Wang et al. [2020]; conditions: ref Wang et al. [2020]; cited from earlier work
HCT116 = tested on: HCT116; design: method as in Wang et al. [2020]; conditions: ref Wang et al. [2020]; cited from earlier work
[6] = blocking group, coinjection of BP-1-102 3.0 mg/kg, 30 min
[7] = control group without BP-1-102, 30 min

Structure (SMILES): CC1CC2=C(O1)c1ccc(OCc3ccc(F)cc3)cc1C(=O)C2=O (stereo not shown) [FBNAF, 7-(4-Fluoro-benzyloxy)-2-methyl-2,3-dihydro-naphtho[1,2-b]furan-4,5-dione]
change in total STAT3 expression ([1]; 0–2 μM): no significant change
inhibition of pSTAT3 expression ([1]; 0.5 μM): 50%
inhibition of pSTAT3 expression ([1]; 1.0 μM): 60%

Structure (SMILES): CN(CC(=O)N(Cc1ccc(C2CCCCC2)cc1)c1ccc(C(=O)O)c(O)c1)S(=O)(=O)c1c(F)c(F)c(F)c(F)c1F [BP-1–102]
Kd (SH2 domain of STAT3; ref Zhang et al. [2012]): 0.504 µM
effect on tumor growth (A549 tumor-bearing mice [2]): inhibited tumor growth

radioactivity in an intact form (intact rate) [3]: more than 85%
Blood radioactivity (A549 tumor-bearing mice [4]; 10 min after i.v. injection): 1.0 ± 0.2 %ID/g
Bone radioactivity (A549 tumor-bearing mice [4]; 10 min after i.v. injection): 2.1 ± 0.2 %ID/g
Brain radioactivity (A549 tumor-bearing mice [4]; 10 min after i.v. injection): 1.9 ± 1.1 %ID/g
Colon radioactivity (A549 tumor-bearing mice [4]; 10 min after i.v. injection): 0.8 ± 0.4 %ID/g
Heart radioactivity (A549 tumor-bearing mice [4]; 10 min after i.v. injection): 2.3 ± 0.8 %ID/g
Kidney radioactivity (A549 tumor-bearing mice [4]; 10 min after i.v. injection): 19.5 ± 7.7 %ID/g
Liver radioactivity (A549 tumor-bearing mice [4]; 10 min after i.v. injection): 10.8 ± 2.8 %ID/g
Lung radioactivity (A549 tumor-bearing mice [4]; 10 min after i.v. injection): 4.4 ± 1.0 %ID/g
Muscle radioactivity (A549 tumor-bearing mice [4]; 10 min after i.v. injection): 2.1 ± 0.8 %ID/g
Pancreas radioactivity (A549 tumor-bearing mice [4]; 10 min after i.v. injection): 6.3 ± 2.9 %ID/g
Small intestine radioactivity (A549 tumor-bearing mice [4]; 10 min after i.v. injection): 11.6 ± 5.5 %ID/g
Spleen radioactivity (A549 tumor-bearing mice [4]; 10 min after i.v. injection): 2.7 ± 0.7 %ID/g
Stomach radioactivity (A549 tumor-bearing mice [4]; 10 min after i.v. injection): 0.6 ± 0.3 %ID
Tumor radioactivity (A549 tumor-bearing mice [4]; 10 min after i.v. injection): 1.5 ± 0.3 %ID/g
Tumor/blood ratio (A549 tumor-bearing mice [4]; 10 min after i.v. injection): 1.6 ± 0.3
Tumor/muscle ratio (A549 tumor-bearing mice [4]; 10 min after i.v. injection): 0.8 ± 0.1
Blood radioactivity (A549 tumor-bearing mice [4]; 30 min after i.v. injection): 1.0 ± 0.3 %ID/g
Bone radioactivity (A549 tumor-bearing mice [4]; 30 min after i.v. injection): 2.3 ± 0.6 %ID/g
Brain radioactivity (A549 tumor-bearing mice [4]; 30 min after i.v. injection): 0.8 ± 0.1 %ID/g
Colon radioactivity (A549 tumor-bearing mice [4]; 30 min after i.v. injection): 0.7 ± 0.4 %ID/g
Heart radioactivity (A549 tumor-bearing mice [4]; 30 min after i.v. injection): 1.5 ± 0.7 %ID/g
Kidney radioactivity (A549 tumor-bearing mice [4]; 30 min after i.v. injection): 4.5 ± 1.2 %ID/g
Liver radioactivity (A549 tumor-bearing mice [4]; 30 min after i.v. injection): 5.3 ± 1.9 %ID/g
Lung radioactivity (A549 tumor-bearing mice [4]; 30 min after i.v. injection): 3.3 ± 2.0 %ID/g
Muscle radioactivity (A549 tumor-bearing mice [4]; 30 min after i.v. injection): 0.6 ± 0.1 %ID/g
Pancreas radioactivity (A549 tumor-bearing mice [4]; 30 min after i.v. injection): 1.1 ± 0.3 %ID/g
Small intestine radioactivity (A549 tumor-bearing mice [4]; 30 min after i.v. injection): 38.3 ± 5.7 %ID/g
Spleen radioactivity (A549 tumor-bearing mice [4]; 30 min after i.v. injection): 1.6 ± 0.5 %ID/g
Stomach radioactivity (A549 tumor-bearing mice [4]; 30 min after i.v. injection): 3.6 ± 2.8 %ID
Tumor radioactivity (A549 tumor-bearing mice [4]; 30 min after i.v. injection): 1.7 ± 0.4 %ID/g
Tumor/blood ratio (A549 tumor-bearing mice [4]; 30 min after i.v. injection): 2.0 ± 1.0
Blood radioactivity (A549 tumor-bearing mice [4]; 60 min after i.v. injection): 0.5 ± 0.1 %ID/g
Bone radioactivity (A549 tumor-bearing mice [4]; 60 min after i.v. injection): 1.5 ± 0.5 %ID/g
Brain radioactivity (A549 tumor-bearing mice [4]; 60 min after i.v. injection): 0.5 ± 0.0 %ID/g
Colon radioactivity (A549 tumor-bearing mice [4]; 60 min after i.v. injection): 11.0 ± 3.5 %ID/g
Heart radioactivity (A549 tumor-bearing mice [4]; 60 min after i.v. injection): 0.7 ± 0.1 %ID/g
Kidney radioactivity (A549 tumor-bearing mice [4]; 60 min after i.v. injection): 0.9 ± 0.3 %ID/g
Liver radioactivity (A549 tumor-bearing mice [4]; 60 min after i.v. injection): 2.2 ± 0.3 %ID/g
Lung radioactivity (A549 tumor-bearing mice [4]; 60 min after i.v. injection): 1.2 ± 0.0 %ID/g
Muscle radioactivity (A549 tumor-bearing mice [4]; 60 min after i.v. injection): 0.5 ± 0.2 %ID/g
Pancreas radioactivity (A549 tumor-bearing mice [4]; 60 min after i.v. injection): 0.5 ± 0.1 %ID/g
Small intestine radioactivity (A549 tumor-bearing mice [4]; 60 min after i.v. injection): 48.4 ± 7.4 %ID/g
Spleen radioactivity (A549 tumor-bearing mice [4]; 60 min after i.v. injection): 0.9 ± 0.1 %ID/g
Stomach radioactivity (A549 tumor-bearing mice [4]; 60 min after i.v. injection): 1.4 ± 1.4 %ID
Tumor radioactivity (A549 tumor-bearing mice [4]; 60 min after i.v. injection): 0.9 ± 0.3 %ID/g
Tumor/blood ratio (A549 tumor-bearing mice [4]; 60 min after i.v. injection): 2.0 ± 0.8
Tumor/muscle ratio (A549 tumor-bearing mice [4]; 60 min after i.v. injection): 2.4 ± 1.2
Blood radioactivity (A549 tumor-bearing mice [4]; 120 min after i.v. injection): 0.3 ± 0.0 %ID/g
Bone radioactivity (A549 tumor-bearing mice [4]; 120 min after i.v. injection): 1.9 ± 0.2 %ID/g
Brain radioactivity (A549 tumor-bearing mice [4]; 120 min after i.v. injection): 0.4 ± 0.1 %ID/g
Colon radioactivity (A549 tumor-bearing mice [4]; 120 min after i.v. injection): 44.4 ± 16.3 %ID/g
Heart radioactivity (A549 tumor-bearing mice [4]; 120 min after i.v. injection): 0.7 ± 0.2 %ID/g
Kidney radioactivity (A549 tumor-bearing mice [4]; 120 min after i.v. injection): 0.5 ± 0.2 %ID/g
Liver radioactivity (A549 tumor-bearing mice [4]; 120 min after i.v. injection): 1.6 ± 0.8 %ID/g
Lung radioactivity (A549 tumor-bearing mice [4]; 120 min after i.v. injection): 1.0 ± 0.3 %ID/g
Muscle radioactivity (A549 tumor-bearing mice [4]; 120 min after i.v. injection): 0.5 ± 0.1 %ID/g
Pancreas radioactivity (A549 tumor-bearing mice [4]; 120 min after i.v. injection): 0.6 ± 0.1 %ID/g
Small intestine radioactivity (A549 tumor-bearing mice [4]; 120 min after i.v. injection): 17.8 ± 2.2 %ID/g
Spleen radioactivity (A549 tumor-bearing mice [4]; 120 min after i.v. injection): 0.8 ± 0.3 %ID/g
Stomach radioactivity (A549 tumor-bearing mice [4]; 120 min after i.v. injection): 0.8 ± 1.0 %ID
Tumor radioactivity (A549 tumor-bearing mice [4]; 120 min after i.v. injection): 0.9 ± 0.3 %ID/g
Tumor/blood ratio (A549 tumor-bearing mice [4]; 120 min after i.v. injection): 2.6 and 2.6 ± 0.8
Tumor/muscle ratio (A549 tumor-bearing mice [4]; 120 min after i.v. injection): 1.9 ± 0.9
tumor-to-blood ratio (A549 tumor-bearing mice [5]; [6]): 1.1 ± 0.3
tumor-to-muscle ratio (A549 tumor-bearing mice [5]; [6]): 2.3 ± 1.2
Tumor radioactivity (A549 tumor-bearing mice [5]; blocking group, coinjection of BP-1-102 3.0 mg/kg, 30 min after administration): 1.0 ± 0.3 % ID/g
radioactivity in blood and muscle, effect of coinjection of the inhibitor (A549 tumor-bearing mice [5]; coinjection of BP-1-102 3.0 mg/kg, 30 min): negligibly affected
tumor-to-blood ratio (A549 tumor-bearing mice [5]; [7]): 2.0 ± 1.0
tumor-to-muscle ratio (A549 tumor-bearing mice [5]; [7]): 2.6 ± 0.3
Structure (SMILES): CC1CC2=C(O1)c1ccc(OCc3ccc([18F])cc3)cc1C(=O)C2=O (stereo not shown) [[^18F]FBNAF, 7-(4-[^18F]Fluoro-benzyloxy)-2-methyl-2,3-dihydro-naphtho[1,2-b]furan-4,5-dione]
intratumoral radioactivity distribution versus STAT3 expression (STAT3): almost corresponded to the STAT3 expression profile

Structure (SMILES): Cc1ccc(COc2ccc3c(c2)C(=O)C(=O)C2=C3OC(C)C2)cc1 (stereo not shown) [LYW-6]
Kd (SH2 domain of STAT3; ref Wang et al. [2020]): 6.6 µM
IC50 (RKO): 3.8 µM
IC50 (HCT116): 4.1 µM
